The source of these data is PMC13252604, “First Generation Proteolysis Targeting Chimeras (PROTACs) for the Treatment of Progeria” (Advanced Science, 2026).

The target in experiment [1] is T1, progerin (Mus musculus, UniProt P48678, DEL608-657).
T1 construct: endogenous in cells; host or cells: immortalized (SV40-LT) fibroblasts from Lmna G609G/G609G mice
T1 sequence (P48678 with tags, fused parts or gaps DEL608-657 limits assumed): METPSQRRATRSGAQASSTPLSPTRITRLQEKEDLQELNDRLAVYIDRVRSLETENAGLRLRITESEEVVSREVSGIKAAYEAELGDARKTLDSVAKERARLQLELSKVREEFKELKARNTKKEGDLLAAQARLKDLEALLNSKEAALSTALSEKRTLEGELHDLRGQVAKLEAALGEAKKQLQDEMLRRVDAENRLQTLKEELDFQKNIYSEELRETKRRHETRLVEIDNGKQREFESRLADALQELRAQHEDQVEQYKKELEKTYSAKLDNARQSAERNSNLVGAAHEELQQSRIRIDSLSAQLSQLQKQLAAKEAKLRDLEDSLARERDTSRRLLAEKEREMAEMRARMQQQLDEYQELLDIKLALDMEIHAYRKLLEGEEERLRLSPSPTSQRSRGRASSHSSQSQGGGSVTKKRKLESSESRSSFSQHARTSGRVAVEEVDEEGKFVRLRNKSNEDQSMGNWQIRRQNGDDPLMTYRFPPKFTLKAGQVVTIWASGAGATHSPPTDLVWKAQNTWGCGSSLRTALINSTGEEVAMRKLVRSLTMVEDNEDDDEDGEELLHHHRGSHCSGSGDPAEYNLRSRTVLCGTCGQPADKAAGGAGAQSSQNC
The experiment is described as follows: Progerin degradation, immunoblot in Lmna^G609G/G609G fibroblasts. Type of experiment: cell-based. The note with it: Lmna^G609G/G609G fibroblasts, 5 µM, 8 h, vs vehicle. As to the method:
The ability of compounds 2‐6 to degrade progerin was evaluated in Lmna^G609G/G609G fibroblasts, derived from the progeria mouse model that most closely replicates the human disease phenotype. Lamin A/C antibody was used for immunodetection due to its prevalent use in this context, enabling simultaneous visualization of both lamins and progerin [15].
FIGURE 2 (A) Representative cropped immunoblots and quantification of progerin from Lmna^G609G/G609G fibroblasts. Cells were incubated with vehicle or indicated compound at 5 µM for 8 h. MW, molecular weight (in kDa) markers. (B, C) Concentration and time‐dependency of the reduction of progerin levels induced by compounds 2 and 9. Graphs show quantification of progerin in Lmna^G609G/G609G fibroblasts (immunoblots are shown in Supporting Figure S1). Cells were incubated with vehicle or the indicated compound concentration for 8 h. For time‐course experiments, cells were incubated with vehicle or indicated compound at 5 µM. Bar graphs show mean±sem of 3 independent experiments performed in duplicate. Data were analysed using one‐way ANOVA followed by Dunnett's post–hoc test comparing all groups to the vehicle; ^*, p < 0.05. […]
4. Cell lines and culture.
Progeroid mouse fibroblasts, kindly donated by Prof. Carlos López Otín (Oviedo University, Spain), were isolated from LmnaG609G/G609G mice[19] and wild-type (WT) littermates and immortalized by retroviral transduction with SV40 large T antigen (SV40-LT). Since LmnaG609G/G609G mouse represents the most suitable and widely accepted model of HGPS, as it most faithfully recapitulates the molecular and phenotypic features of the human disease, its use in this study is fully justified. Moreover, although this cell […]
cells have been extensively validated by additional independent studies.[15, 65, 66] […]
experiments, nor does it affect the conclusions presented in our study.
Mouse fibroblasts were grown in Dulbecco’s modified eagle medium (DMEM, Gibco) supplemented with 10% heat inactivated fetal bovine serum (FBS, Gibco), 50 U/mL penicillin, and 50 μg/mL streptomycin (Invitrogen). Human progeroid HGADFN167 LmnaG608G/G608G (G608G) or or healthy HGADFN168 Lmna+/+ (WT) fibroblasts, were obtained from The Progeria Research Foundation (RRIDs CVCL_1Y92 and CVCL_1Y93, respectively) and cultured in DMEM with 20% heat inactivated FBS, 50 U/mL penicillin and 50 μg/mL streptomycin. All cells were incubated in a humidified atmosphere at 37 °C in the presence of 5% CO2 and were confirmed to be free of mycoplasma contamination. […]
Measurements were performed in triplicate, and each experiment was repeated at least three times. The viability values were calculated from the percentage of viable cells with respect to 100% viability of the vehicle-treated cells.
6. Immunoblot and immunocytofluorescence analysis.
Mouse or human progeroid cells were seeded at density of […] or 5 x 10^4 cells respectively on 12-well plates and incubated for 24 h in DMEM medium. For proteosome-dependency assays, cells were pre-treated either with the proteasome inhibitor (S)-MG132 (20 µM) or with the NEDD8-activating enzyme inhibitor MLN4924 (5 µM) for 2 h prior to […]
compound exposure. Then, cells were incubated with compound of interest or DMSO for the appropriate time and lysed with cold laemmli buffer (50 mM Tris-HCl pH 7.4, 150 mM NaCl, 1% Igepal) with a mixture of protease and phosphatase inhibitors (1 mM PMSF, 10 mM NaF, 0.3 mg/mL CalyculinA, 1 mM sodium orthovanadate, 10 mM β-glycerol-phosphate; all from Sigma-Aldrich and complete protease inhibitor cocktail, from Roche). Proteins were denatured at 95 ᵒC for 5 min and the lysates were immediately used or stored at -20 ᵒC until use. Samples were analysed by electrophoresis in polyacrylamide gels (All Kd SDS-PAGE, BioRad) and the proteins transferred to nitrocellulose membranes (GE Healthcare, Amersham). After 1 h of incubation in blocking buffer [20 mM Tris pH 7.6, 150 mM NaCl and 0.1% Tween-20 (TBS-T) with […]
(In general: Immunoblotting shows a protein as a band on a membrane.)

In experiment [2] the test system is Hutchinson‐Gilford Progeria Syndrome. To be noted: progeria patients; cited from earlier work.

As for `Cc1ncsc1-c1ccc(CNC(=O)[C@@H]2C[C@@H](O)CN2C(=O)[C@@H](NC(=O)CCCCC(=O)O[C@H]2Cc3cc4ccc(=O)oc4cc3OC2(C)C)C(C)(C)C)cc1` [compound 11], in experiment [1], the “progerin levels (immunoblot quantification)” value is “neither the glutarimide derivative 10 nor the VHL‐ligand‐containing compound 11 led to a significant reduction in progerin levels”.
The same measure, in the same setting: then `CN1C(=O)CCC(N2C(=O)c3cccc(NCCCCCC(=O)O[C@H]4Cc5cc6ccc(=O)oc6cc5OC4(C)C)c3C2=O)C1=O` (some centres unmarked) [compound 13], with “ineffective in lowering progerin levels”.
Same read-out and setting: under `CC1(C)Oc2cc3oc(=O)ccc3cc2C[C@@H]1OC(=O)CCCCCOc1ccc(C2CCC(=O)NC2=O)cc1` (some centres unmarked) [compound 10] stands “neither the glutarimide derivative 10 nor the VHL‐ligand‐containing compound 11 led to a significant reduction in progerin levels”.
For the compound `NC(=O)N1CCC(CC(=O)N2CCC([C@H]3c4ncc(Br)cc4CCc4cc(Cl)cc(Br)c43)CC2)CC1` [lonafarnib], in experiment [2], the “effect on key phenotypic hallmarks of progeria” value was “does not improve some of the key phenotypic hallmarks of progeria” and the “extension of average life expectancy” value was “up to 33%”.
